Assay results published in PubChem BioAssay AID2060906 (Molecular Pharmacology Branch, DTP, NCI, 2025).

System: 485176-168-R4-J1-PDC complex spheroid growth
Experiment: Anticancer human tumor 485176-168-R4-J1-PDC patient-derived pancreatic adenocarcinoma cell line growth inhibition [RAS]
Details: for IC50: curve of first compound; for viability, T/C: stronger effect = lower value; active = viability on the fitted dose curve at most 10% of control; inactive = the rest
In short: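 Multi-cell-type spheroids: tumor cells plus HUVEC endothelial cells and mesenchymal stem cells. RAS-pathway inhibitors were combined with targeted agents, each dosed in half-log steps down from clinical Cmax, or from 10 microM when Cmax was unknown.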

[1] = second compound 0.00316 µM, first compound 0.000949 µM
[2] = second compound 0.00316 µM, first compound 0.003 µM
[3] = second compound 0.00316 µM, first compound 0.00949 µM
[4] = second compound 0.00316 µM, first compound 0.03 µM
[5] = second compound 0.00316 µM, first compound 0.0949 µM
[6] = second compound 0.00316 µM, first compound 0.3 µM
[7] = second compound 0.01 µM, first compound 0.000949 µM
[8] = second compound 0.01 µM, first compound 0.003 µM
[9] = second compound 0.01 µM, first compound 0.00949 µM
[10] = second compound 0.01 µM, first compound 0.03 µM
[11] = second compound 0.01 µM, first compound 0.0949 µM
[12] = second compound 0.01 µM, first compound 0.3 µM
[13] = second compound 0.0316 µM, first compound 0.000949 µM
[14] = second compound 0.0316 µM, first compound 0.003 µM
[15] = second compound 0.0316 µM, first compound 0.00949 µM
[16] = second compound 0.0316 µM, first compound 0.03 µM
[17] = second compound 0.0316 µM, first compound 0.0949 µM
[18] = second compound 0.0316 µM, first compound 0.3 µM
[19] = second compound 0.1 µM, first compound 0.000949 µM
[20] = second compound 0.1 µM, first compound 0.003 µM
[21] = second compound 0.1 µM, first compound 0.00949 µM
[22] = second compound 0.1 µM, first compound 0.03 µM
[23] = second compound 0.1 µM, first compound 0.0949 µM
[24] = second compound 0.1 µM, first compound 0.3 µM
[25] = second compound 0.316 µM, first compound 0.000949 µM
[26] = second compound 0.316 µM, first compound 0.003 µM
[27] = second compound 0.316 µM, first compound 0.00949 µM
[28] = second compound 0.316 µM, first compound 0.03 µM
[29] = second compound 0.316 µM, first compound 0.0949 µM
[30] = second compound 0.316 µM, first compound 0.3 µM
[31] = second compound 1 µM, first compound 0.000949 µM
[32] = second compound 1 µM, first compound 0.003 µM
[33] = second compound 1 µM, first compound 0.00949 µM
[34] = second compound 1 µM, first compound 0.03 µM
[35] = second compound 1 µM, first compound 0.0949 µM
[36] = second compound 1 µM, first compound 0.3 µM
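Note: spheroids exposed to compounds for seven days before readout.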
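Throughout, for viability, T/C: luminescence viability expressed relative to DMSO vehicle wells set as 100%.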

CC(=O)OC12COC1CC(O)C1(C)C(=O)C(O)C3=C(C)C(OC(=O)C(O)C(NC(=O)OC(C)(C)C)c4ccccc4)CC(O)(C(OC(=O)c4ccccc4)C21)C3(C)C (stereo unspecified) + C=CC(=O)N1CCN(c2nc(OCC3CCCN3C)nc3c(F)c(-c4nc(N)cc(C)c4C(F)(F)F)c(Cl)cc23)C(C)C1
inactive: viability, T/C (second compound 0.00316 µM, first compound 0.0316 µM) 13.2% | viability, T/C (second compound 0.00316 µM, first compound 0.1 µM) 9.9% | viability, T/C (second compound 0.00316 µM, first compound 0.316 µM) 13.1% | viability, T/C (second compound 0.00316 µM, first compound 1 µM) 11.3% | viability, T/C (second compound 0.00316 µM, first compound 3.16 µM) 15.8% | viability, T/C (second compound 0.00316 µM, first compound 10 µM) 18.9% | viability, T/C (second compound 0.01 µM, first compound 0.0316 µM) 17% | viability, T/C (second compound 0.01 µM, first compound 0.1 µM) 12.3% | viability, T/C (second compound 0.01 µM, first compound 0.316 µM) 11.4% | viability, T/C (second compound 0.01 µM, first compound 1 µM) 11.7% | viability, T/C (second compound 0.01 µM, first compound 3.16 µM) 13.7% | viability, T/C (second compound 0.01 µM, first compound 10 µM) 16.3% | viability, T/C (second compound 0.0316 µM, first compound 0.0316 µM) 15.2% | viability, T/C (second compound 0.0316 µM, first compound 0.1 µM) 13.6% | viability, T/C (second compound 0.0316 µM, first compound 0.316 µM) 12% | viability, T/C (second compound 0.0316 µM, first compound 1 µM) 15.1% | viability, T/C (second compound 0.0316 µM, first compound 3.16 µM) 13.3% | viability, T/C (second compound 0.0316 µM, first compound 10 µM) 17.9% | viability, T/C (second compound 0.1 µM, first compound 0.0316 µM) 13.3% | viability, T/C (second compound 0.1 µM, first compound 0.1 µM) 13.8% | viability, T/C (second compound 0.1 µM, first compound 0.316 µM) 10.5% | viability, T/C (second compound 0.1 µM, first compound 1 µM) 11.3% | viability, T/C (second compound 0.1 µM, first compound 3.16 µM) 16.7% | viability, T/C (second compound 0.1 µM, first compound 10 µM) 17.9% | viability, T/C (second compound 0.316 µM, first compound 0.0316 µM) 18.4% | viability, T/C (second compound 0.316 µM, first compound 0.1 µM) 13.3% | viability, T/C (second compound 0.316 µM, first compound 0.316 µM) 11.8% | viability, T/C (second compound 0.316 µM, first compound 1 µM) 9.75% | viability, T/C (second compound 0.316 µM, first compound 3.16 µM) 15.5% | viability, T/C (second compound 0.316 µM, first compound 10 µM) 19.4% | viability, T/C (second compound 1 µM, first compound 0.0316 µM) 12.6% | viability, T/C (second compound 1 µM, first compound 0.1 µM) 9.69% | viability, T/C (second compound 1 µM, first compound 0.316 µM) 9.77% | viability, T/C (second compound 1 µM, first compound 1 µM) 9.87% | viability, T/C (second compound 1 µM, first compound 3.16 µM) 15.3% | viability, T/C (second compound 1 µM, first compound 10 µM) 18.2%
< 31.6 nM: IC50 (second compound 0.00316 µM) | IC50 (second compound 0.01 µM) | IC50 (second compound 0.0316 µM) | IC50 (second compound 0.1 µM) | IC50 (second compound 0.316 µM) | IC50 (second compound 1 µM)

CC1(C)CCC(Nc2ncc(C(F)(F)F)c(-c3c[nH]c4c(P(C)(C)=O)c(C#N)ccc34)n2)CN1 (stereo unspecified) + C=CC(=O)N1CCN(c2nc(OCC3CCCN3C)nc3c(F)c(-c4nc(N)cc(C)c4C(F)(F)F)c(Cl)cc23)C(C)C1
133 nM: IC50 (second compound 0.1 µM)
> 300 nM: IC50 (second compound 0.00316 µM) | IC50 (second compound 0.0316 µM)
43.1 nM: IC50 (second compound 0.316 µM)
94.4 nM: IC50 (second compound 1 µM)
inactive: viability, T/C [1] 116% | viability, T/C [2] 109% | viability, T/C [3] 85.6% | viability, T/C [4] 60% | viability, T/C [5] 46.2% | viability, T/C [6] 55.6% | viability, T/C [7] 122% | viability, T/C [8] 98.9% | viability, T/C [9] 75.7% | viability, T/C [10] 53.9% | viability, T/C [11] 48.4% | viability, T/C [12] 48.1% | viability, T/C [13] 100% | viability, T/C [14] 105% | viability, T/C [15] 81.5% | viability, T/C [16] 59.5% | viability, T/C [17] 51% | viability, T/C [18] 49.1% | viability, T/C [19] 102% | viability, T/C [20] 84.8% | viability, T/C [21] 80.4% | viability, T/C [22] 63.8% | viability, T/C [23] 47.2% | viability, T/C [24] 47.8% | viability, T/C [25] 92.7% | viability, T/C [26] 104% | viability, T/C [27] 81% | viability, T/C [28] 52% | viability, T/C [29] 52.1% | viability, T/C [30] 44.2% | viability, T/C [31] 108% | viability, T/C [32] 106% | viability, T/C [33] 82.8% | viability, T/C [34] 57% | viability, T/C [35] 52.2% | viability, T/C [36] 46.9%
80.8 nM: IC50 (second compound 0.01 µM)

CCc1c2c(nc3ccc(O)cc13)-c1cc3c(c(=O)n1C2)COC(=O)[C@]3(O)CC + C=CC(=O)N1CCN(c2nc(OCC3CCCN3C)nc3c(F)c(-c4nc(N)cc(C)c4C(F)(F)F)c(Cl)cc23)C(C)C1
13.7 nM: IC50 (second compound 0.01 µM)
inactive: viability, T/C [1] 94.2% | viability, T/C [2] 79.2% | viability, T/C [3] 58.4% | viability, T/C [4] 31.9% | viability, T/C [5] 13.9% | viability, T/C [7] 94% | viability, T/C [8] 82.6% | viability, T/C [9] 60.6% | viability, T/C [10] 28.8% | viability, T/C [11] 12.5% | viability, T/C [13] 84.8% | viability, T/C [14] 97.8% | viability, T/C [15] 47.5% | viability, T/C [16] 27.8% | viability, T/C [17] 10.9% | viability, T/C [19] 81.3% | viability, T/C [20] 70.1% | viability, T/C [21] 54.1% | viability, T/C [22] 34.5% | viability, T/C [23] 11.2% | viability, T/C [25] 92.8% | viability, T/C [26] 82.4% | viability, T/C [27] 71.8% | viability, T/C [28] 27% | viability, T/C [29] 14% | viability, T/C [31] 95.9% | viability, T/C [32] 75% | viability, T/C [33] 58.7% | viability, T/C [34] 22.7% | viability, T/C [35] 10.5%
11.9 nM: IC50 (second compound 0.1 µM)
13.3 nM: IC50 (second compound 0.00316 µM)
11.1 nM: IC50 (second compound 0.0316 µM) | IC50 (second compound 1 µM)
active: viability, T/C [6] 6.54% | viability, T/C [12] 6.49% | viability, T/C [18] 4.77% | viability, T/C [24] 6.91% | viability, T/C [30] 5.42% | viability, T/C [36] 6.39%
16.6 nM: IC50 (second compound 0.316 µM)
